Source: patent publication US20230416262A1, “TRPML MODULATORS” (Casma Therapeutics, Inc., priority 2020, published 2023)

system: THP-1 cells; test: Lamp1 lysosomal exocytosis assay; type: cell-based; conditions: Homo sapiens, 55 min, 55 min incubation, top dose 20 μM
Protocol: For the Lamp1 lysosomal exocytosis assay, a human monocytic suspension cell line (THP-1) was used. Cells in culture should be used between a density of […] and 1.2e6/mL on the day of the assay. For each 96-well assay plate to be used, pellet 11e6 THP-1 cells at 330×g for 5 min in a 50 mL conical tube, aspirate media and resuspend in 22 mLs of RPMI 1640/10% FBS media for a final cell concentration of 5e5/mL. Prior to addition of cells to the assay plate, perform a 7 pt dilution curve using a top dose of compound at 2 mM and use a 3-fold serial dilution, the 8th point is DMSO only. Final top dose of compound in the assay was 20 μM. 2 μL of each serial dilution was transferred to a new 96-well v-bottom assay plate. 198 μL of cells (1e5 total cells/well) was prepared as above in each well of the assay plate and incubated at 37° C./5% CO2/95% RH for 55 min. After the 55 min incubation, cells were pelleted for 5 min at 4 C at 400×g in a tabletop centrifuge. The media was separated from the cell pellets in the plate. The pellets were washed using 200 μL ice cold buffer (PBS Ca^++/Mg^++ containing 2% final BSA and 80 μM final Dynasore). Cells were pelleted again at 400×g-5 min in a 4° C. tabletop centrifuge. Buffer was separated from cells. Each well was suspended in 75 uL Lamp1-PE antibody buffer (PBS Ca^++/Mg^++ containing 2% final BSA with 80 uM final Dynasore and 1:800 final dilution of Lamp 1-PE labeled antibody). After a 45 min antibody incubation on ice, 25 μL of sytox green was added (I drop/mL buffer), and each well was mixed and incubated for an additional 15 min on ice. After the 15 min sytox green incubation, 100 μL of ice-cold buffer (PBS Ca^++/Mg^++ containing 2% final BSA and 80 uM final Dynasore) was added and cells were pelleted for 5 min at 400×g. The buffer was removed and each sample was resuspended in 100 uL of ice-cold buffer (PBS Ca^++/Mg^++ containing 2% final BSA and 80 μM final Dynasore). FACs gating strategy: FACS analyze for sytox green (A488) and Lamp1-PE (DsRed). First gate against FSC-A/SSC-A to find non-fragmented or ‘live’ THP-1 cells. Next gate against FITC-A/FSC-A to omit sytox green positive cells. Then gate for FSC-A/FSC-H to remove any doublet cells. The last gate was a histogram for PE. The statistics for ‘count’ and ‘geometric mean fluorescence intensity’ (gWFI) for PE were repoted on the last gate.
Compounds having an activity designated as “++++” provided an exocytosis readout of ≤0.50 μM; compounds having an activity designated as “+++” provided an exocytosis readout of 0.51-1.00 μM; compounds having an activity designated as “++” provided an exocytosis readout of 1.01-5.00 μM; and compounds having an activity designated as “+” provided an exocytosis readout of ≥5.01 μM

| Compound | EC50 [µM] |
| --- | --- |
| O=C(OCc1ccncc1)N1CCC2(CC1)CN(S(=O)(=O)c1ccc(C(F)F)cc1)c1ccccc12 [Compound I-159, pyridin-4-ylmethyl 1-((4-(difluoromethyl)phenyl)sulfonyl)spiro[indoline-3,4′-piperidine]-1′-carboxylate] | ≥ 5.01 |
| Cn1cc(NC(=O)N2CCC3(CC2)CN(S(=O)(=O)c2ccc(C(F)F)cc2)c2ccccc23)cn1 [Compound I-200, 1-((4-(difluoromethyl)phenyl)sulfonyl)-N-(1-methyl-1H-pyrazol-4-yl)spiro[indoline-3,4′-piperidine]-1′-carboxamide] | ≥ 5.01 |
| O=C(N1CCCC1)N1CCC2(CC1)CN(S(=O)(=O)c1ccc(C(F)F)cc1)c1ccccc12 [Compound I-136, (1-((4-(difluoromethyl)phenyl)sulfonyl)spiro[indoline-3,4′-piperidin]-1′-yl)(pyrrolidin-1-yl)methanone] | ≥ 5.01 |
| O=C(C1CCC2(CC1)CN(S(=O)(=O)c1ccc(C(F)F)cc1)c1ccccc12)N1CCC2(COC2)C1 (stereo not drawn) [Compound I-244, (1′-((4-(difluoromethyl)phenyl)sulfonyl)spiro[cyclohexane-1,3′-indolin]-4-yl)(2-oxa-6-azaspiro[3.4]octan-6-yl)methanone] | ≥ 5.01 |
| O=C(NCC1CCOCC1)N1CCC2(CC1)CN(S(=O)(=O)c1ccc(C(F)F)cc1)c1ccccc12 [Compound I-215, 1-((4-(difluoromethyl)phenyl)sulfonyl)-N-((tetrahydro-2H-pyran-4-yl)methyl)spiro[indoline-3,4′-piperidine]-1′-carboxamide] | ≥ 5.01 |
| Cc1noc(C)c1NC(=O)N1CCC2(CC1)CN(S(=O)(=O)c1ccc(C(F)F)cc1)c1ccccc12 [Compound I-213, 1-((4-(difluoromethyl)phenyl)sulfonyl)-N-(3,5-dimethylisoxazol-4-yl)spiro[indoline-3,4′-piperidine]-1′-carboxamide] | ≥ 5.01 |
| O=C(Nc1ccccc1)N1CCC2(CC1)CN(S(=O)(=O)c1ccc(C(F)F)cc1)c1ccccc12 [Compound I-197, 1-((4-(difluoromethyl)phenyl)sulfonyl)-N-phenylspiro[indoline-3,4′-piperidine]-1′-carboxamide] | ≥ 5.01 |
| CN(C(=O)C1CCC2(CC1)CN(S(=O)(=O)c1ccc(C(F)F)cc1)c1ccccc12)c1nccn1C (stereo not drawn) [Compound I-245, 1′-((4-(difluoromethyl)phenyl)sulfonyl)-N-methyl-N-(1-methyl-1H-imidazol-2-yl)spiro[cyclohexane-1,3′-indoline]-4-carboxamide] | ≥ 5.01 |
| O=S1(=O)CCC2(CC1)CN(S(=O)(=O)c1ccc(C(F)F)cc1)c1ccccc12 [Compound I-152, 1-((4-(difluoromethyl)phenyl)sulfonyl)-2′,3′,5′,6′-tetrahydrospiro[indoline-3,4′-thiopyran] 1′,1′-dioxide] | ≥ 5.01 |
| Cn1cc(NC(=O)N2CCC3(CC2)CN(S(=O)(=O)c2ccc(C(F)F)cc2)c2ccccc23)c(=O)n(C)c1=O [Compound I-229, 1-((4-(difluoromethyl)phenyl)sulfonyl)-N-(1,3-dimethyl-2,4-dioxo-1,2,3,4-tetrahydropyrimidin-5-yl)spiro[indoline-3,4′-piperidine]-1′-carboxamide] | ≥ 5.01 |
| COc1ccc(NC(=O)N2CCC3(CC2)CN(S(=O)(=O)c2ccc(C(F)F)cc2)c2ccccc23)cn1 [Compound I-216, 1-((4-(difluoromethyl)phenyl)sulfonyl)-N-(6-methoxypyridin-3-yl)spiro[indoline-3,4′-piperidine]-1′-carboxamide] | ≥ 5.01 |
| O=C(NCC1CC1)N1CCC2(CC1)CN(S(=O)(=O)c1ccc(C(F)F)cc1)c1ccccc12 [Compound I-193, N-(cyclopropylmethyl)-1-((4-(difluoromethyl)phenyl)sulfonyl)spiro[indoline-3,4′-piperidine]-1′-carboxamide] | ≥ 5.01 |

Further lines, results first:

| EC50 [µM] | Compound |
| --- | --- |
| ≥ 5.01 | O=C(C1CCC2(CC1)CN(S(=O)(=O)c1ccc(C(F)F)cc1)c1ccccc12)N1CCC2(CCOC2)C1 (stereo not drawn) [Compound I-240, (1′-((4-(difluoromethyl)phenyl)sulfonyl)spiro[cyclohexane-1,3′-indolin]-4-y1)(2-oxa-7-azaspiro[4.4]nonan-7-yl)methanone] |
| ≥ 5.01 | O=C(Cc1ccccc1)N1CCC2(CC1)CN(S(=O)(=O)c1ccc(C(F)F)cc1)c1ccccc12 [Compound I-175, 1-(1-((4-(difluoromethyl)phenyl)sulfonyl)spiro[indoline-3,4′-piperidin]-1′-yl)-2-phenylethan-1-one] |
| ≥ 5.01 | Cn1cccc1NC(=O)N1CCC2(CC1)CN(S(=O)(=O)c1ccc(C(F)F)cc1)c1ccccc12 [Compound I-199, 1-((4-(difluoromethyl)phenyl)sulfonyl)-N-(1-methyl-1H-pyrrol-2-yl)spiro[indoline-3,4′-piperidine]-1′-carboxamide] |
| ≥ 5.01 | O=C(CCC1CCCO1)N1CCC2(CC1)CN(S(=O)(=O)c1ccc(C(F)F)cc1)c1ccccc12 (stereo not drawn) [Compound I-252, 1-(1-((4-(difluoromethyl)phenyl)sulfonyl)spiro[indoline-3,4′-piperidin]-1′-yl)-3-(tetrahydrofuran-2-yl)propan-1-one] |
| ≥ 5.01 | O=C(NCC1CC1)C1CCC2(CC1)CN(S(=O)(=O)c1ccc(C(F)F)cc1)c1ccccc12 (stereo not drawn) [Compound I-236, N-(cyclopropylmethyl)-1′-((4-(difluoromethyl)phenyl)sulfonyl)spiro[cyclohexane-1,3′-indoline]-4-carboxamide] |
| 0.51 to 1 | CCn1ccc(COC(=O)N2CCC3(CC2)CN(S(=O)(=O)c2ccc(C(F)F)cc2)c2ccccc23)n1 [Compound I-177, (1-ethyl-1H-pyrazol-3-yl)methyl 1-((4-(difluoromethyl)phenyl)sulfonyl)spiro[indoline-3,4′-piperidine]-1′-carboxylate] |
| ≥ 5.01 | Cc1cc(CNC(=O)N2CCC3(CC2)CN(S(=O)(=O)c2ccc(C(F)F)cc2)c2ccccc23)on1 [Compound I-212] |
| ≥ 5.01 | O=C(NCC1CCCO1)N1CCC2(CC1)CN(S(=O)(=O)c1ccc(C(F)F)cc1)c1ccccc12 (stereo not drawn) [Compound I-203, 1-((4-(difluoromethyl)phenyl)sulfonyl)-N-((tetrahydrofuran-2-yl)methyl)spiro[indoline-3,4′-piperidine]-1′-carboxamide] |
| ≥ 5.01 | O=C(OCc1ccccc1)N1CCC2(CC1)CN(C(=O)c1ccc(C(F)F)cc1)c1ccccc12 [Compound I-185, benzyl 1-(4-(difluoromethyl)benzoyl)spiro[indoline-3,4′-piperidine]-1′-carboxylate] |
| ≤ 0.5 | O=C(OCc1ccccc1)N1CCC2(CC1)CN(S(=O)(=O)c1ccc(C(F)F)cc1)c1cnccc12 [Compound I-135, benzyl 1′-[4-(difluoromethyl)benzenesulfonyl]-1′,2′-dihydrospiro[piperidine-4,3′-pyrrolo[2,3-c]pyridine]-1-carboxylate] |
| ≥ 5.01 | CCOCCNC(=O)N1CCC2(CC1)CN(S(=O)(=O)c1ccc(C(F)F)cc1)c1ccccc12 [Compound I-196, 1-((4-(difluoromethyl)phenyl)sulfonyl)-N-(2-ethoxyethyl)spiro[indoline-3,4′-piperidine]-1′-carboxamide] |
| ≥ 5.01 | CC(C)NC(=O)N1CCC2(CC1)CN(S(=O)(=O)c1ccc(C(F)F)cc1)c1ccccc12 [Compound I-192, 1-((4-(difluoromethyl)phenyl)sulfonyl)-N-isopropylspiro[indoline-3,4′-piperidine]-1′-carboxamide] |
